{
  "source": "paper PMC7718273",
  "about": "(Scientific Reports, 2020)",
  "key": {"[1]": {"molecular_target": "T1, CYP 2D6 (Homo sapiens, UniProt P10635)", "T1 construct": "from tissue; host or cells: human liver microsomes", "T1 sequence (P10635 whole entry)": "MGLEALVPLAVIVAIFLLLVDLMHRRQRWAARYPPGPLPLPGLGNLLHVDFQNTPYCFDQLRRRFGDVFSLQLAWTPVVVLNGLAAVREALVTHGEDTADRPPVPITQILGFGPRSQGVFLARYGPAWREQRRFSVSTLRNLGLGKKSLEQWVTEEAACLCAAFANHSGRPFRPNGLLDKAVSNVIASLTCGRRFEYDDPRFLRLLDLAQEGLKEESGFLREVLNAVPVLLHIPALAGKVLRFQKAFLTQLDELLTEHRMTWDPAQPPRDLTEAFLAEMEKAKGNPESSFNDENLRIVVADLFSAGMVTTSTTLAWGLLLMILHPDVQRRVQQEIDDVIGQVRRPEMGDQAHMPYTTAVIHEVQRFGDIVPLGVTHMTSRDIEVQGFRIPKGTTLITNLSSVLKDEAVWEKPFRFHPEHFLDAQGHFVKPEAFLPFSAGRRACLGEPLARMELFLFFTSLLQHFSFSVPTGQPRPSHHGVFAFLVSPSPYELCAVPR", "experiment": "CYPs inhibition, human liver microsome, substrate cocktail", "format": "in vitro ADME", "details": "4th of 5 values; head prints R; footnote lists CYPs 1A2, 2C9, 2C19, 2D6, 3A4; read-out: CYPs inhibition (IC50, µM) (H/Mk/D/R/M)", "description": "(§1) Metabolites of the substrate probes were simultaneously analyzed by multiple-reaction monitoring using routine LC-MS/MS."}, "[2]": {"molecular_target": "T2, CYP 2C9 (Homo sapiens, UniProt P11712)", "T2 construct": "from tissue; host or cells: human liver microsomes", "T2 sequence (P11712 whole entry)": "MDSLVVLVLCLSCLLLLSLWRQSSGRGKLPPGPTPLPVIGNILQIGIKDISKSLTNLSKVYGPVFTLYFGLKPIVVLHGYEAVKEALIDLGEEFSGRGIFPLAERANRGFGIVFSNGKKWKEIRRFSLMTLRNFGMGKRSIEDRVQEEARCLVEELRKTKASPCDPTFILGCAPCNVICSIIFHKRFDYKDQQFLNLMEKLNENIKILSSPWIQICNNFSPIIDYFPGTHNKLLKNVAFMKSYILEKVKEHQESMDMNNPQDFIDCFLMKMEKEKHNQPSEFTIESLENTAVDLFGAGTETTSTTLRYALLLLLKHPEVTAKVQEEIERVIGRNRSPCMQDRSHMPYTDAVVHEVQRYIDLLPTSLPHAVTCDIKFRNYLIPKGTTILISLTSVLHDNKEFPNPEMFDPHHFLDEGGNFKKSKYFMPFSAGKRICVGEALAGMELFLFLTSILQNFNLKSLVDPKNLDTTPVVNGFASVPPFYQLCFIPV", "experiment": "CYPs inhibition, human liver microsome, substrate cocktail", "format": "in vitro ADME", "details": "2nd of 5 values; head prints Mk; footnote lists CYPs 1A2, 2C9, 2C19, 2D6, 3A4; read-out: CYPs inhibition (IC50, µM) (H/Mk/D/R/M)", "description": "as §1"}, "[3]": {"molecular_target": "T3, CYP 1A2 (Homo sapiens, UniProt P05177)", "T3 construct": "from tissue; host or cells: human liver microsomes", "T3 sequence (P05177 whole entry)": "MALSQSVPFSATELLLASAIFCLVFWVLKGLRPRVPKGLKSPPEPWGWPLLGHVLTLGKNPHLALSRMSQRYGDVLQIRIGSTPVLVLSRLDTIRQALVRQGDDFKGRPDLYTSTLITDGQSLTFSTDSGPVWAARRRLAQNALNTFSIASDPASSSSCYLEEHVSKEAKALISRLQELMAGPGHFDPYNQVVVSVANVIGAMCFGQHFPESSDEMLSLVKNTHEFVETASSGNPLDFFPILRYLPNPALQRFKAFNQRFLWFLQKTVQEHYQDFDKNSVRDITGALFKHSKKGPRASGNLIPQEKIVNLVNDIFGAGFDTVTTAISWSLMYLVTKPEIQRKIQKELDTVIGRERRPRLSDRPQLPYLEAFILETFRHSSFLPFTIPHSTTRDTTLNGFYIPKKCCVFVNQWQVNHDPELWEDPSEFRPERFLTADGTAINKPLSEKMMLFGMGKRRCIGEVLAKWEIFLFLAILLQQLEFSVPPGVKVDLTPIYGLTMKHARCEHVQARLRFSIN", "experiment": "CYPs inhibition, human liver microsome, substrate cocktail", "format": "in vitro ADME", "details": "1st of 5 values; head prints H; footnote lists CYPs 1A2, 2C9, 2C19, 2D6, 3A4; read-out: CYPs inhibition (IC50, µM) (H/Mk/D/R/M)", "description": "as §1"}, "[4]": {"molecular_target": "T4, CYP 3A4 (Homo sapiens, UniProt P08684)", "T4 construct": "from tissue; host or cells: human liver microsomes", "T4 sequence (P08684 whole entry)": "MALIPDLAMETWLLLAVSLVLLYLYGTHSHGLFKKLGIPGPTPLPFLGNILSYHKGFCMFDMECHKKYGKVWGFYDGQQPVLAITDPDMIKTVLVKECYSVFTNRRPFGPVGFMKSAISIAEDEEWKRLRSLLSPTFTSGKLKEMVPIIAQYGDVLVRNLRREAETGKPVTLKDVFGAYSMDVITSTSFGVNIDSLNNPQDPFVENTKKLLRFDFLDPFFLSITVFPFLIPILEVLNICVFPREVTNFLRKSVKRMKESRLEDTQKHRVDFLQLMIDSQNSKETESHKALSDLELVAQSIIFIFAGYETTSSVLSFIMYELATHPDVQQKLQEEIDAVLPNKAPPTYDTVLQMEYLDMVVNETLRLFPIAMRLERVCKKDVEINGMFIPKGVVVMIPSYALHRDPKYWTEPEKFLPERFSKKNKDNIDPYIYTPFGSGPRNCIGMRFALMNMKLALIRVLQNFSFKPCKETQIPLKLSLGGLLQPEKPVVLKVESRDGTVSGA", "experiment": "CYPs inhibition, human liver microsome, substrate cocktail", "format": "in vitro ADME", "details": "5th of 5 values; head prints M; footnote lists CYPs 1A2, 2C9, 2C19, 2D6, 3A4; read-out: CYPs inhibition (IC50, µM) (H/Mk/D/R/M)", "description": "as §1"}, "[5]": {"experiment": "Plasma stability, mouse", "format": "in vitro ADME", "details": "pH 7.4, mouse (M), read-out: Plasma stability (% remaining at 60 min)", "method": "(§2) Aliquots were then transferred in duplicate to: (i) a final concentration plate that was immediately quenched with 23.6 ng/mL internal standard (IS, chlorpropamide) in acetonitrile (ACN) or (ii) tubes, which were centrifuged for 5 min at 4℃ (14,000 rpm). The samples were subjected to LC–MS/MS analysis on an AB Sciex 4000 Q Trap hybrid triple quadrupole linear ion-trap MS (AB Sciex, Framingham, MA) coupled to an Agilent 1200 HPLC (Agilent Tech. Santa Clara, CA) with a reverse-phase Kinetex XB-C18 column (2.1 × 100 mm, 2.6 µm; Phenomenex). Mobile phases were comprised of 0.1% formic acid (FA) in water (A) and 0.1 FA in ACN (B). Data analysis was performed using […] (Ver. 1.6.1)."}, "[6]": {"system": "ob/ob mice", "experiment": "Chronic study using ob/ob mice (4 weeks)", "source_text": "(a) Nonfasting blood glucose levels in ob/ob mice. […] (g) The plasma levels of ALT (GPT), AST (GOT), TG, total cholesterol and NEFA in ob/ob mice. […] (i) Relative expression of genes related to intrahepatic lipogenic gene (GCK), fatty acid and TG synthesis genes (FASN, SREBP and APOC3, LIPIN1), β-oxidation genes (CPT1α, MCAD and PPARα) and FGF21 related genes (ATF4, CHOP, FGF21 and β-klotho) in liver and FGF21 related genes (AdipoQ and β-klotho) in white adipose tissue of ob/ob mice.\nDuring the observation period, mice were monitored for glucose profiles and weighed. […] Under anesthesia, blood was promptly collected by orbital bleeding and then harvested. Liver tissue was then collected. Serum ALT, AST, TG, total cholesterol, and NEFA levels were assessed by KNOTUS (Incheon, Korea)."}, "[7]": {"experiment": "Plasma protein binding, rat", "format": "in vitro ADME", "details": "rat (R), read-out: Plasma protein binding (% bound) (converted)", "method": "Protein binding was conducted as described. Compound solutions prepared in DMSO were diluted in phosphate buffer (final concentration: 1 µg/mL), and added into human plasma (total volume: 1 mL). Aliquots were then transferred in duplicate to: (i) a final concentration plate that was immediately quenched with 23.6 ng/mL internal standard (IS, chlorpropamide) in ACN, (ii) a degradation control, which was placed in a water bath at 37℃ for 4 h, and (iii) ultracentrifuge tubes, which were centrifuged for 5 min at 4℃ (14,000 rpm). All reactions were stopped by the addition of ACN containing 23.6 ng/mL chlorpropamide. The samples were subjected to LC–MS/MS analysis."}, "[8]": {"experiment": "Plasma stability, rat", "format": "in vitro ADME", "details": "pH 7.4, rat (R), read-out: Plasma stability (% remaining at 60 min)", "method": "as §2"}},
  "data": [
    {"compound": "N#Cc1ccc(Cc2nc(C(=O)NCC(=O)N3CC(F)(F)C[C@H]3C#N)cs2)cc1", "note": "[BR103354, (S)-N-(2-(2-cyano-4,4-difluoropyrrolidin-1-yl)-2-oxoethyl)-2-(4-cyanobenzyl)thiazole-4-carboxamide]", "values": [
      {"measurement": "IC50", "setting": "[1]", "value": "> 50", "unit": "µM"},
      {"measurement": "IC50", "setting": "[2]", "value": "> 50", "unit": "µM"},
      {"measurement": "IC50", "setting": "[3]", "value": "> 50", "unit": "µM"},
      {"measurement": "IC50", "setting": "[4]", "value": "> 50", "unit": "µM"},
      {"measurement": "remaining at 1 h, 1 µM", "setting": "[5]", "value": 94, "unit": "%"},
      {"measurement": "glucose tolerance (oral glucose tolerance test)", "setting": "[6]; 50 mg/kg", "value": "improved glucose tolerance significantly"},
      {"measurement": "FGF21, ATF4 and CHOP mRNA expression in liver", "setting": "[6]; 4 weeks", "value": "increased"},
      {"measurement": "liver TG content (Oil red O staining)", "setting": "[6]; 4 weeks", "value": "decreased"},
      {"measurement": "body weight between treatments", "setting": "[6]; 4 weeks (data not shown)", "value": "no change"},
      {"measurement": "ERK phosphorylation in adipose tissues", "setting": "[6]; 4 weeks, vs vehicle", "value": "increased"},
      {"measurement": "Serum alanine aminotransferase (ALT)", "setting": "[6]; 4 weeks, vs vehicle", "value": "significantly reduced"},
      {"measurement": "aspartate aminotransferase (AST)", "setting": "[6]; 4 weeks, vs vehicle", "value": "significantly reduced"},
      {"measurement": "non-esterified free fatty acid (NEFA) levels", "setting": "[6]; 4 weeks, vs vehicle", "value": "unaltered"},
      {"measurement": "serum TG", "setting": "[6]; 4 weeks, vs vehicle", "value": "unaltered"},
      {"measurement": "total cholesterol", "setting": "[6]; 4 weeks, vs vehicle", "value": "significantly reduced"},
      {"measurement": "nonfasting blood glucose", "setting": "[6]; 20 and 50 mg/kg once daily p.o., from 2 weeks, vs vehicle (P < 0.01)", "value": "significantly decreased"},
      {"measurement": "increase of total form of serum FGF21", "setting": "[6]; 20 and 50 mg/kg, week 4", "value": "approximately 1.4 fold"},
      {"measurement": "adiponectin level in white adipose tissues", "setting": "[6]; after 4 weeks of treatment", "value": "increased"},
      {"measurement": "fasting blood glucose levels", "setting": "[6]; after 4 weeks of treatment", "value": "significantly reduced"},
      {"measurement": "fasting body weights", "setting": "[6]; after 4 weeks of treatment", "value": "significantly reduced"},
      {"measurement": "insulin levels", "setting": "[6]; after 4 weeks of treatment", "value": "significantly reduced"},
      {"measurement": "liver weights", "setting": "[6]; after 4 weeks of treatment", "value": "significantly reduced"},
      {"measurement": "fraction unbound at 1 µg/mL", "setting": "[7]", "value": 0.4},
      {"measurement": "remaining at 1 h, 1 µM", "setting": "[8]", "value": 79, "unit": "%"}
    ]}
  ]
}
